Experimental data as given in US20060069132A1, “Azolecarboxamide herbicides” (priority 2004, published 2006).

Tests used:
bermudagrass = experiment: Test C pre-/postemergence herbicide test; type: in vivo, Cynodon dactylon; conditions: for Bermudagrass plant response rating: Preemergence
Summary of the method: (§1)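 Visual injury scores run from 0 (no effect) to 100 (complete control), assessed relative to untreated controls 12 to 14 days after treatment in the greenhouse. Chemicals were formulated in a non-phytotoxic solvent mixture with surfactant and applied to soil after planting or to emerged plants at the 1- to 4-leaf stage.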

large crabgrass = experiment: Test C pre-/postemergence herbicide test; type: in vivo, Digitaria sanguinalis
Summary of the method: as §1

giant foxtail = experiment: Test C pre-/postemergence herbicide test; type: in vivo, Setaria faberi
Summary of the method: as §1

lambsquarters = experiment: Test C pre-/postemergence herbicide test; type: in vivo, Chenopodium album
Summary of the method: as §1

morningglory = experiment: Test C pre-/postemergence herbicide test; type: in vivo, Ipomoea coccinea; parameters: key to Plant response rating, Morningglory: 0 = no effect, 100 = complete control
Summary of the method: as §1

common ragweed = experiment: Test C pre-/postemergence herbicide test; type: in vivo, Ambrosia elatior; parameters: key to Plant response rating, Ragweed: 0 = no effect, 100 = complete control
Summary of the method: as §1

velvetleaf = experiment: Test C pre-/postemergence herbicide test; type: in vivo, Abutilon theophrasti
Summary of the method: as §1

rice = experiment: Test C flooded paddy test; type: in vivo, Oryza sativa
Summary of the method: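 Postemergence sprays applied to plants 2 to 18 cm tall (1- to 4-leaf stage); paddy species grown to 2-leaf stage under flooding. After 12 to 14 days in greenhouse, visual rating versus untreated controls on 0–100 scale (0 no effect, 100 complete control).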

[1] = test system: smallflower umbrella sedge; experiment: Test C flooded paddy test; type: in vivo, Cyperus difformis
[2] = 62 g ai/ha, preemergence, scale 0 to 100, 0 no effect, 100 complete control
[3] = 125 g ai/ha, scale 0 (no effect) to 100 (complete control), visual, 12 to 14 days, preemergence
[4] = 250 g ai/ha, scale 0 to 100 (0 no effect, 100 complete control), visual, 12 to 14 days, preemergence
[5] = 500 g ai/ha, scale 0 to 100, 0 no effect, 100 complete control
[6] = 62 g ai/ha, preemergence, scale 0 to 100
[7] = Preemergence, 500 g ai/ha, scale 0 to 100, 0 no effect, 100 complete control
[8] = 62 g ai/ha, scale 0 to 100 (0 no effect, 100 complete control)
[9] = 125 g ai/ha, scale 0 to 100 (0 no effect, 100 complete control)
[10] = 250 g ai/ha, scale of 0 to 100, 0 is no effect, 100 is complete control
[11] = 500 g ai/ha, visual rating after 12 to 14 days, scale 0 to 100 (0 no effect, 100 complete control)
[12] = 250 g ai/ha, scale 0-100, preemergence
[13] = 500 g ai/ha, scale 0 to 100 (0 no effect, 100 complete control), visual, 12 to 14 days, preemergence

SMILES: CCn1nc2c(c1C(=O)Nc1cc(C(=O)N(C)C)ccc1F)CCC2(C)C [Compound 352, N-[5-[(dimethylamino)carbonyl]-2-fluorophenyl]-2-ethyl-2,4,5,6-tetrahydro-6,6-dimethyl-3-cyclopentapyrazolecarboxamide]
- Plant response rating (0 = no effect, 100 = complete control), Bermudagrass (bermudagrass; 125 g ai/ha, preemergence): 100
- pest or weed control at 62 g/ha (bermudagrass; Cynodon dactylon, pre-emergence, 312 h, 62 g ai/ha, preemergence, scale 0 to 100, 0 no effect, 100 complete control, read-out: Plant response rating, Bermudagrass): 95%
- pest or weed control at 250 g/ha (bermudagrass; Cynodon dactylon, pre-emergence, 312 h, 250 g ai/ha, scale 0-100, read-out: Plant response rating, Bermudagrass): 100%
- pest or weed control at 500 g/ha (bermudagrass; Cynodon dactylon, pre-emergence, 312 h, 500 g ai/ha, scale 0 to 100 (0 no effect, 100 complete control), visual, 12 to 14 days, read-out: Plant response rating, Bermudagrass): 100%
- Plant response rating (0 = no effect, 100 = complete control), Crabgrass, Large (large crabgrass; 125 g ai/ha, preemergence): 85
- pest or weed control at 62 g/ha (large crabgrass; Digitaria sanguinalis, pre-emergence, 312 h, 62 g ai/ha, preemergence, scale 0 to 100, read-out: Plant response rating, Crabgrass, Large): 55%
- pest or weed control at 250 g/ha (large crabgrass; Digitaria sanguinalis, pre-emergence, 312 h, 250 g ai/ha, scale 0-100, read-out: Plant response rating, Crabgrass, Large): 100%
- pest or weed control at 500 g/ha (large crabgrass; Digitaria sanguinalis, pre-emergence, 312 h, 500 g ai/ha, scale 0 to 100 (0 no effect, 100 complete control), visual, 12 to 14 days, read-out: Plant response rating, Crabgrass, Large): 100%
- Plant response rating (0 = no effect, 100 = complete control), Foxtail, Giant (giant foxtail; 125 g ai/ha, preemergence): 60
- pest or weed control at 62 g/ha (giant foxtail; Setaria faberi, pre-emergence, 312 h, 62 g ai/ha, preemergence, scale 0 to 100, read-out: Plant response rating, Foxtail, Giant): 5%
- pest or weed control at 250 g/ha (giant foxtail; Setaria faberi, pre-emergence, 312 h, 250 g ai/ha, scale 0-100, read-out: Plant response rating, Foxtail, Giant): 100%
- pest or weed control at 500 g/ha (giant foxtail; Setaria faberi, pre-emergence, 312 h, 500 g ai/ha, scale 0 to 100 (0 no effect, 100 complete control), visual, 12 to 14 days, read-out: Plant response rating, Foxtail, Giant): 100%
- Plant response rating (0 = no effect, 100 = complete control), Lambsquarters (lambsquarters; 125 g ai/ha, preemergence): 100
- pest or weed control at 62 g/ha (lambsquarters; Chenopodium album, pre-emergence, 62 g ai/ha, preemergence, scale 0 to 100, read-out: Plant response rating, Lambsquarters): 85%
- pest or weed control at 250 g/ha (lambsquarters; Chenopodium album, pre-emergence, 250 g ai/ha, scale 0-100, read-out: Plant response rating, Lambsquarters): 100%
- pest or weed control at 500 g/ha (lambsquarters; Chenopodium album, pre-emergence, 500 g ai/ha, scale 0 to 100 (0 no effect, 100 complete control), visual, 12 to 14 days, read-out: Plant response rating, Lambsquarters): 100%
- Plant response rating (0 = no effect, 100 = complete control), Morningglory (morningglory; 125 g ai/ha, preemergence): 5
- pest or weed control at 62 g/ha (morningglory; Ipomoea, pre-emergence, 62 g ai/ha, preemergence, scale 0 to 100, read-out: Plant response rating, Morningglory): 5%
- pest or weed control at 250 g/ha (morningglory; Ipomoea, pre-emergence, 250 g ai/ha, scale 0-100, read-out: Plant response rating, Morningglory): 40%
- pest or weed control at 500 g/ha (morningglory; Ipomoea, pre-emergence, 500 g ai/ha, scale 0 to 100 (0 no effect, 100 complete control), visual, 12 to 14 days, read-out: Plant response rating, Morningglory): 60%
- Plant response rating (0 = no effect, 100 = complete control), Ragweed (common ragweed; 125 g ai/ha, preemergence): 40
- pest or weed control at 62 g/ha (common ragweed; Ambrosia artemisiifolia, pre-emergence, 62 g ai/ha, preemergence, scale 0 to 100, read-out: Plant response rating, Ragweed): 0%
- pest or weed control at 250 g/ha (common ragweed; Ambrosia artemisiifolia, pre-emergence, 250 g ai/ha, scale 0-100, read-out: Plant response rating, Ragweed): 50%
- pest or weed control at 500 g/ha (common ragweed; Ambrosia artemisiifolia, pre-emergence, 500 g ai/ha, scale 0 to 100 (0 no effect, 100 complete control), visual, 12 to 14 days, read-out: Plant response rating, Ragweed): 60%
- Plant response rating (0 = no effect, 100 = complete control), Velvetleaf (velvetleaf; 125 g ai/ha, preemergence): 5
- pest or weed control at 62 g/ha (velvetleaf; Abutilon theophrasti, pre-emergence, 62 g ai/ha, preemergence, scale 0 to 100, read-out: Plant response rating, Velvetleaf): 0%
- pest or weed control at 250 g/ha (velvetleaf; Abutilon theophrasti, pre-emergence, 250 g ai/ha, scale 0-100, read-out: Plant response rating, Velvetleaf): 70%
- pest or weed control at 500 g/ha (velvetleaf; Abutilon theophrasti, pre-emergence, 500 g ai/ha, scale 0 to 100 (0 no effect, 100 complete control), visual, 12 to 14 days, read-out: Plant response rating, Velvetleaf): 100%
- plant injury at 62 g/ha (rice; Oryza sativa, 62 g ai/ha, scale 0 to 100, read-out: Rice plant response rating): 20%
- plant injury at 125 g/ha (rice; Oryza sativa, 125 g ai/ha, scale 0 to 100 (0 no effect, 100 complete control), read-out: Rice plant response rating): 45%
- plant injury at 250 g/ha (rice; Oryza sativa, 250 g ai/ha, scale of 0 to 100, 0 is no effect, 100 is complete control, read-out: Rice plant response rating): 60%
- plant injury at 500 g/ha (rice; Oryza sativa, 500 g ai/ha, visual rating after 12 to 14 days, scale 0 to 100 (0 no effect, 100 complete control), read-out: Plant response rating, Rice): 70%
- pest or weed control at 62 g/ha ([1]; Cyperus difformis, 62 g ai/ha, scale 0 to 100, read-out: Sedge, Umbrella plant response rating): 50%
- pest or weed control at 125 g/ha ([1]; Cyperus difformis, 125 g ai/ha, scale 0 to 100 (0 no effect, 100 complete control), read-out: Sedge, Umbrella plant response rating): 75%
- pest or weed control at 250 g/ha ([1]; Cyperus difformis, 250 g ai/ha, scale of 0 to 100, 0 is no effect, 100 is complete control, read-out: Sedge, Umbrella plant response rating): 90%
- pest or weed control at 500 g/ha ([1]; Cyperus difformis, 500 g ai/ha, visual rating after 12 to 14 days, scale 0 to 100 (0 no effect, 100 complete control), read-out: Plant response rating, Sedge, Umbrella): 95%

SMILES: CCn1nc(C(C)(C)C)cc1C(=O)Nc1cccc(C(N)=O)n1 [Compound 162, 6-[[[3-(1,1-dimethylethyl)-1-ethyl-1H-pyrazol-5-yl]carbonyl]amino]-2-pyridinecarboxamide]
- Plant response rating, Bermudagrass (bermudagrass; [2]): 0
- Plant response rating, Bermudagrass (bermudagrass; [3]): 0
- Plant response rating, Bermudagrass (bermudagrass; [4]): 20
- Bermudagrass plant response rating (bermudagrass; [5]): 40
- Plant response rating, Crabgrass, Large (large crabgrass; [6]): 35
- Plant response rating, Crabgrass, Large (large crabgrass; [3]): 40
- Plant response rating, Crabgrass, Large (large crabgrass; [4]): 80
- Crabgrass, Large plant response rating (large crabgrass; [7]): 100
- Plant response rating, Foxtail, Giant (giant foxtail; [6]): 55
- Plant response rating, Foxtail, Giant (giant foxtail; [3]): 60
- Plant response rating, Foxtail, Giant (giant foxtail; [4]): 60
- Foxtail, Giant plant response rating (giant foxtail; [7]): 75
- Plant response rating, Lambsquarters (lambsquarters; [6]): 80
- Plant response rating, Lambsquarters (lambsquarters; [3]): 95
- Lambsquarters plant response rating (lambsquarters; [7]): 100
- Plant response rating, Morningglory (morningglory; [6]): 45
- Plant response rating, Morningglory (morningglory; [3]): 100
- Morningglory plant response rating (morningglory; [7]): 100
- Plant response rating, Ragweed (common ragweed; [6]): 95
- Plant response rating, Ragweed (common ragweed; [3]): 95
- Ragweed plant response rating (common ragweed; [7]): 100
- Plant response rating, Velvetleaf (velvetleaf; [6]): 70
- Plant response rating, Velvetleaf (velvetleaf; [3]): 75
- Velvetleaf plant response rating (velvetleaf; [7]): 100
- Rice plant response rating (rice; [8]): 55
- Rice plant response rating (rice; [9]): 60
- Rice plant response rating (rice; [10]): 70
- Plant response rating, Rice (rice; [11]): 75
- Sedge, Umbrella plant response rating [1, 8]: 70
- Sedge, Umbrella plant response rating [1, 10]: 75

SMILES: CCn1nc(C2(C)CC2)cc1C(=O)Nc1cc(C(=O)N(C)C)ccc1F [Compound 299]
- Plant response rating, Bermudagrass (bermudagrass; [2]): 100
- Plant response rating, Bermudagrass (bermudagrass; [3]): 100
- Plant response rating, Bermudagrass (bermudagrass; [12]): 100
- Bermudagrass plant response rating (bermudagrass; [5]): 100
- Plant response rating, Crabgrass, Large (large crabgrass; [6]): 100
- Plant response rating, Crabgrass, Large (large crabgrass; [3]): 100
- Plant response rating, Crabgrass, Large (large crabgrass; [12]): 100
- Plant response rating, Crabgrass, Large (large crabgrass; [13]): 100
- Plant response rating, Foxtail, Giant (giant foxtail; [6]): 100
- Plant response rating, Foxtail, Giant (giant foxtail; [3]): 100
- Plant response rating, Foxtail, Giant (giant foxtail; [12]): 100
- Plant response rating, Foxtail, Giant (giant foxtail; [13]): 100
- Plant response rating, Lambsquarters (lambsquarters; [6]): 100
- Plant response rating, Lambsquarters (lambsquarters; [3]): 100
- Plant response rating, Lambsquarters (lambsquarters; [12]): 100
- Plant response rating, Lambsquarters (lambsquarters; [13]): 100
- Plant response rating, Morningglory (morningglory; [6]): 5
- Plant response rating, Morningglory (morningglory; [3]): 75
- Plant response rating, Morningglory (morningglory; [12]): 100
- Plant response rating, Morningglory (morningglory; [13]): 100
- Plant response rating, Ragweed (common ragweed; [6]): 100
- Plant response rating, Ragweed (common ragweed; [12]): 100
- Plant response rating, Ragweed (common ragweed; [13]): 100
- Plant response rating, Velvetleaf (velvetleaf; [6]): 5
- Plant response rating, Velvetleaf (velvetleaf; [12]): 100
- Plant response rating, Velvetleaf (velvetleaf; [13]): 100
- Rice plant response rating (rice; 62 g ai/ha, scale 0 to 100): 70
- Rice plant response rating (rice; [9]): 80
- Rice plant response rating (rice; [10]): 80
- Plant response rating, Rice (rice; [11]): 85
- Sedge, Umbrella plant response rating ([1]; 62 g ai/ha, scale 0 to 100): 85
- Sedge, Umbrella plant response rating [1, 9]: 95
- Sedge, Umbrella plant response rating [1, 10]: 95
- Plant response rating, Sedge, Umbrella [1, 11]: 95
